{"source": "patent US20210077382A1", "about": "“COMPOSITIONS, DEVICES, AND METHODS FOR THE TREATMENT OF OPIOID-RECEPTOR-MEDIATED CONDITIONS” (Opiant Phamaceuticals, Inc., priority 2016, published 2021)", "assay": "Clinical pharmacokinetic crossover study of IN, IM and oral naltrexone; plasma naltrexone and 6β-naltrexol by LC-MS/MS", "excerpt": "Study Goals. […] Secondary endpoints included adverse events (AEs), vital signs (heart rate, sitting blood pressure, and respiration rate), electrocardiogram (ECG), clinical laboratory changes and nasal irritation using the nasal irritation scale.\nStudy design. […] This was an in-patient open-label, crossover study involving approximately 14 healthy volunteers. […] Subjects stayed in the in-patient facility for 13 days to complete the entire study. Subjects were called 3 to 5 days after discharge to inquire concerning AEs and concomitant medications since discharge. Informed consent was obtained from all subjects, and all were screened for eligibility to participate in the study, including medical history, physical examination, clinical chemistry, coagulation markers, hematology, infectious disease serology, urinalysis, urine drug and alcohol toxicology screen, vital signs and ECG.\nOn days of study drug administration, a 12-lead ECG was performed approximately 1 hour prior to dosing and at approximately 1 and 4 hours post-dose. Vital signs were measured pre-dose and about 1 and 4 hours post-dose.\nStudy Drugs and Dosing. […] The IN (40 mg/mL) formulations were made by the staff pharmacist at Vince & Associates; the vehicle for the IN formulations was sterile water for injection. The IM formulation (2 mg/mL) was made by the staff pharmacist at Vince & Associates; the vehicle was sterile saline for injection.\nSubjects stayed in the in-patient facility for 13 days to complete the entire study and were discharged 2 days after the fourth dose.\nPK Assessments. […] Plasma was separated from whole blood and stored frozen at […] until assayed.\nAnalysis. […] Dose-adjusted values for AUCs and Cmax were calculated. The relative extent of IN and PO absorption (IN and PO versus IM) will be estimated from the dose-corrected AUCs.", "data": [{"smiles": "Oc1ccc2c3c1O[C@H]1[C@H](O)CC[C@@]4(O)[C@@H](C2)N(CC2CC2)CC[C@]314", "note": "[6β-naltrexol]", "values": [{"measurement": "λz of 6β-naltrexol, mean (CV %)", "setting": "naltrexone 4 mg IN plus […] Intravail, N = 12", "value": "0.0553 (15.1) 1/h"}, {"measurement": "AUC0-inf of 6β-naltrexol, mean (CV %)", "setting": "naltrexone 4 mg IN, N = 13", "value": 44.0, "unit": "ng·h/mL"}, {"measurement": "AUC0-inf/Dose of 6β-naltrexol, mean (CV %)", "setting": "naltrexone 4 mg IN, N = 13", "value": "12.2 (23.1) h · ng/mL/mg"}, {"measurement": "AUC0-t of 6β-naltrexol, mean (CV %)", "setting": "naltrexone 4 mg IN, N = 13", "value": "40.3 (23.3) h · ng/mL"}, {"measurement": "AUC0-t/Dose of 6β-naltrexol, mean (CV %)", "setting": "naltrexone 4 mg IN, N = 13", "value": "11.1 (23.3) h · ng/mL/mg"}, {"measurement": "AUCextrap of 6β-naltrexol, mean (CV %)", "setting": "naltrexone 4 mg IN, N = 13", "value": "8.57 (46.1) %"}, {"measurement": "Cmax of 6β-naltrexol, mean (CV %)", "setting": "naltrexone 4 mg IN, N = 13", "value": "3.01 (33.2) ng/mL"}, {"measurement": "Cmax/Dose of 6β-naltrexol, mean (CV %)", "setting": "naltrexone 4 mg IN, N = 13", "value": 0.833, "unit": "ng/mL/mg"}, {"measurement": "Tmax of 6β-naltrexol, median (minimum, maximum)", "setting": "naltrexone 4 mg IN, N = 13", "value": 2.00, "unit": "h"}, {"measurement": "t1/2 of 6β-naltrexol, mean (CV %)", "setting": "naltrexone 4 mg IN, N = 13", "value": "13.7 (22.7) h"}, {"measurement": "λz of 6β-naltrexol, mean (CV %)", "setting": "naltrexone 4 mg IN, N = 13", "value": 0.0530, "unit": "h⁻¹"}, {"measurement": "Cmax/Dose of 6β-naltrexol, mean (CV %)", "setting": "naltrexone 4 mg IN, N = 13, listed as 6β-Naltrexol", "value": "0.833 (33.2) ng/mL/mg"}, {"measurement": "Mean concentration of 6β-naltrexol", "setting": "naltrexone 4 mg IN, hour 0", "value": 0, "unit": "ng/mL"}, {"measurement": "Mean concentration of 6β-naltrexol", "setting": "naltrexone 4 mg IN, hour 0.042", "value": 0, "unit": "ng/mL"}, {"measurement": "Mean concentration of 6β-naltrexol", "setting": "naltrexone 4 mg IN, hour 0.083", "value": 0.0321, "unit": "ng/mL"}, {"measurement": "Mean concentration of 6β-naltrexol", "setting": "naltrexone 4 mg IN, hour 0.17", "value": 0.196, "unit": "ng/mL"}, {"measurement": "Mean concentration of 6β-naltrexol", "setting": "naltrexone 4 mg IN, hour 0.25", "value": 0.45, "unit": "ng/mL"}, {"measurement": "Mean concentration of 6β-naltrexol", "setting": "naltrexone 4 mg IN, hour 0.33", "value": 0.693, "unit": "ng/mL"}, {"measurement": "Mean concentration of 6β-naltrexol", "setting": "naltrexone 4 mg IN, hour 0.5", "value": 1.11, "unit": "ng/mL"}, {"measurement": "Mean concentration of 6β-naltrexol", "setting": "naltrexone 4 mg IN, hour 0.75", "value": 1.82, "unit": "ng/mL"}, {"measurement": "Mean concentration of 6β-naltrexol", "setting": "naltrexone 4 mg IN, hour 1", "value": 1.83, "unit": "ng/mL"}, {"measurement": "Mean concentration of 6β-naltrexol", "setting": "naltrexone 4 mg IN, hour 2", "value": 2.68, "unit": "ng/mL"}, {"measurement": "Mean concentration of 6β-naltrexol", "setting": "naltrexone 4 mg IN, hour 3", "value": 2.61, "unit": "ng/mL"}, {"measurement": "Mean concentration of 6β-naltrexol", "setting": "naltrexone 4 mg IN, hour 4", "value": 2.37, "unit": "ng/mL"}, {"measurement": "Mean concentration of 6β-naltrexol", "setting": "naltrexone 4 mg IN, hour 6", "value": 1.97, "unit": "ng/mL"}, {"measurement": "Mean concentration of 6β-naltrexol", "setting": "naltrexone 4 mg IN, hour 8", "value": 1.62, "unit": "ng/mL"}, {"measurement": "Mean concentration of 6β-naltrexol", "setting": "naltrexone 4 mg IN, hour 12", "value": 1.26, "unit": "ng/mL"}, {"measurement": "Mean concentration of 6β-naltrexol", "setting": "naltrexone 4 mg IN, hour 16", "value": 0.919, "unit": "ng/mL"}, {"measurement": "Mean concentration of 6β-naltrexol", "setting": "naltrexone 4 mg IN, hour 24", "value": 0.602, "unit": "ng/mL"}, {"measurement": "Mean concentration of 6β-naltrexol", "setting": "naltrexone 4 mg IN, hour 30", "value": 0.418, "unit": "ng/mL"}, {"measurement": "Mean concentration of 6β-naltrexol", "setting": "naltrexone 4 mg IN, hour 36", "value": 0.292, "unit": "ng/mL"}, {"measurement": "Mean concentration of 6β-naltrexol", "setting": "naltrexone 4 mg IN, hour 48", "value": 0.184, "unit": "ng/mL"}, {"measurement": "AUC0-inf of 6β-naltrexol, mean (CV %)", "setting": "naltrexone 50 mg Oral, N = 10", "value": 675, "unit": "ng·h/mL"}, {"measurement": "AUC0-inf/Dose of 6β-naltrexol, mean (CV %)", "setting": "naltrexone 50 mg Oral, N = 10", "value": "14.9 (19.9) h · ng/mL/mg"}, {"measurement": "AUC0-t of 6β-naltrexol, mean (CV %)", "setting": "naltrexone 50 mg Oral, N = 10", "value": "614 (19.5) h · ng/mL"}, {"measurement": "AUC0-t/Dose of 6β-naltrexol, mean (CV %)", "setting": "naltrexone 50 mg Oral, N = 10", "value": "13.6 (19.5) h · ng/mL/mg"}, {"measurement": "AUCextrap of 6β-naltrexol, mean (CV %)", "setting": "naltrexone 50 mg Oral, N = 10", "value": "8.79 (57.3) %"}, {"measurement": "Cmax of 6β-naltrexol, mean (CV %)", "setting": "naltrexone 50 mg Oral, N = 10", "value": 90.7, "unit": "ng/mL"}, {"measurement": "Cmax/Dose of 6β-naltrexol, mean (CV %)", "setting": "naltrexone 50 mg Oral, N = 10", "value": 2.00, "unit": "ng/mL/mg"}, {"measurement": "Tmax of 6β-naltrexol, median (minimum, maximum)", "setting": "naltrexone 50 mg Oral, N = 10", "value": 0.63, "unit": "h"}, {"measurement": "t1/2 of 6β-naltrexol, mean (CV %)", "setting": "naltrexone 50 mg Oral, N = 10", "value": "13.9 (15.9) h"}, {"measurement": "λz of 6β-naltrexol, mean (CV %)", "setting": "naltrexone 50 mg Oral, N = 10", "value": "0.0510 (15.8) 1/h"}, {"measurement": "Cmax/Dose of 6β-naltrexol, mean (CV %)", "setting": "naltrexone 50 mg Oral, N = 10, listed as 6β-Naltrexol", "value": "2.00 (30.3) ng/mL/mg"}, {"measurement": "Mean concentration of 6β-naltrexol", "setting": "naltrexone 50 mg Oral, hour 0", "value": 0.0454, "unit": "ng/mL"}, {"measurement": "Mean concentration of 6β-naltrexol", "setting": "naltrexone 50 mg Oral, hour 0.042", "value": 0.0448, "unit": "ng/mL"}, {"measurement": "Mean concentration of 6β-naltrexol", "setting": "naltrexone 50 mg Oral, hour 0.083", "value": 1.4, "unit": "ng/mL"}, {"measurement": "Mean concentration of 6β-naltrexol", "setting": "naltrexone 50 mg Oral, hour 0.17", "value": 14.2, "unit": "ng/mL"}, {"measurement": "Mean concentration of 6β-naltrexol", "setting": "naltrexone 50 mg Oral, hour 0.25", "value": 31.6, "unit": "ng/mL"}, {"measurement": "Mean concentration of 6β-naltrexol", "setting": "naltrexone 50 mg Oral, hour 0.33", "value": 45.5, "unit": "ng/mL"}, {"measurement": "Mean concentration of 6β-naltrexol", "setting": "naltrexone 50 mg Oral, hour 0.5", "value": 68.7, "unit": "ng/mL"}, {"measurement": "Mean concentration of 6β-naltrexol", "setting": "naltrexone 50 mg Oral, hour 0.75", "value": 60.8, "unit": "ng/mL"}, {"measurement": "Mean concentration of 6β-naltrexol", "setting": "naltrexone 50 mg Oral, hour 1", "value": 58.6, "unit": "ng/mL"}, {"measurement": "Mean concentration of 6β-naltrexol", "setting": "naltrexone 50 mg Oral, hour 2", "value": 54, "unit": "ng/mL"}, {"measurement": "Mean concentration of 6β-naltrexol", "setting": "naltrexone 50 mg Oral, hour 3", "value": 45.8, "unit": "ng/mL"}, {"measurement": "Mean concentration of 6β-naltrexol", "setting": "naltrexone 50 mg Oral, hour 4", "value": 38, "unit": "ng/mL"}, {"measurement": "Mean concentration of 6β-naltrexol", "setting": "naltrexone 50 mg Oral, hour 6", "value": 28.5, "unit": "ng/mL"}, {"measurement": "Mean concentration of 6β-naltrexol", "setting": "naltrexone 50 mg Oral, hour 8", "value": 22.2, "unit": "ng/mL"}, {"measurement": "Mean concentration of 6β-naltrexol", "setting": "naltrexone 50 mg Oral, hour 12", "value": 15.4, "unit": "ng/mL"}, {"measurement": "Mean concentration of 6β-naltrexol", "setting": "naltrexone 50 mg Oral, hour 16", "value": 11.4, "unit": "ng/mL"}, {"measurement": "Mean concentration of 6β-naltrexol", "setting": "naltrexone 50 mg Oral, hour 24", "value": 8.14, "unit": "ng/mL"}, {"measurement": "Mean concentration of 6β-naltrexol", "setting": "naltrexone 50 mg Oral, hour 30", "value": 5.93, "unit": "ng/mL"}, {"measurement": "Mean concentration of 6β-naltrexol", "setting": "naltrexone 50 mg Oral, hour 36", "value": 4.35, "unit": "ng/mL"}, {"measurement": "Mean concentration of 6β-naltrexol", "setting": "naltrexone 50 mg Oral, hour 48", "value": 2.43, "unit": "ng/mL"}, {"measurement": "Dose-adjusted Cmax of 6β-naltrexol after oral administration, higher than after IN and IM doses", "setting": "oral vs IN and IM", "value": "approximately 2 fold"}]}]}
